Source: US20240041764A1, “Sustained-Release Oral Fosamprenavir Formulation for Treatment of Reflux” (The Medical College of Wisconsin, Inc., priority 2022, published 2024)
Entries after “also recorded” stand apart in the source; their conditions may differ.

Key:
[1] = in vivo; cited from earlier work
[2] = prodrug relative to amprenavir; cited from earlier work
[3] = mice; cited from earlier work
[4] = system: LPR mouse model (pepsin-mediated laryngeal damage); assay: in vivo LPR mouse model: mechanical injury plus laryngeal pepsin instillation, H&E histology; details: for protection against pepsin-mediated laryngeal damage (histology): 0.3 mg/ml pepsin pH7, 4 weeks
Excerpt: Three replicate animals per treatment condition were anticipated to suffice for verification of reproducibility in each experiment without excessive use of animal life. The three mice were randomly allocated to treatment groups. No data were excluded from analysis.
Six-week-old female Jackson A/J mice (Jackson Laboratory, Bar Harbor, ME) were fed D-62 powdered Wattenberg diet, 2 g/mouse/day^95 and allowed to acclimate for one week upon arrival prior to experiments. In accord with previously established methods for modeling aerodigestive tract damage attributed to GERD and LPR,^1,95-99 mechanical injury applied during the first two weeks of a four-week treatment course was used to predispose the laryngeal mucosa to chemical injury by pepsin/acid applied throughout the four weeks. […] Briefly, anesthetized mice were suspended by upper teeth on a slanted board under an operating microscope.
In a preliminary experiment to validate the LPR mouse model (i.e. laryngeal damage by pepsin at neutral and acidic pH), 20 μl saline (solvent control) or 0.3 mg/ml pepsin at pH7.0 or 4.0 were provided to mice (n=3) by laryngeal instillation at 24, 48, and 72 hours after mechanical injury during weeks 1 and 2 (FIG. 6); laryngeal instillation without wounding (3 days/week) continued during weeks 3 and 4. […] Mice were sacrificed at conclusion of the fourth week.
To test the protective effect of HIV protease inhibitors on pepsin-mediated damage in vivo, inhibitors were delivered by aerosol or gavage concurrently with wounding (days 2, 8) and solvent/pepsin instillation (days 3-5, 9-11, 16-18 and 23-25). Aerosol or gavage was provided on days 1-5, 8-12, 15-19, and 22-25, and mice sacrificed day 26. Mice were anesthetized with isoflurane (3% in 2.5LPM, 3-5 minutes prior to procedures) as opposed to Avertin due to frequency. […] Aerosol was generated as described^100. Briefly, a 10 ml suspension of drug in ethanol was placed in the baffle, such that the concentration would remain constant at the equilibrium solubility. Droplets of ethanol containing dissolved drug were generated by an ultrasonic atomizer (nominal frequency 1.7 MHz) and entrained by air at a flow rate of 0.5 LPM with a custom-built glass baffle (UMN Department of Chemistry Glass Shop). The aerosol cloud was then passed through a cylindrical drying column containing an annular ring of charcoal. The ethanol was removed and the emanating dry aerosol particles of pure drug were then directed into the exposure chamber. The mass deposited on filters was measured gravimetrically and total output rate (mg/min) was determined. The aerosol concentration (mass/volume of air) was calculated by dividing the total output rate by the air flow rate (0.5 LPM). The inhaled mass of drug (Minh) for each mouse was defined as Minh=[Aerosol]*RMV*t, where Aerosol is the aerosol concentration of drug, RMV is the respiratory minute volume of the mice (0.025 L/min), and t is the aerosol exposure time. […] Actual mass deposited was not determined but anticipated to be 10% of inhaled mass (the deposition fraction of […] aerosol particles in mice).
Tissues were collected, fixed in paraformaldehyde, embedded in paraffin and 4 um sections stained with hematoxylin and eosin (H&E) via automated stainer. Slides were reviewed by a board-certified pathologist (JM) blinded to treatment groups.

[5] = target: T1, porcine pepsin (Sus scrofa, UniProt P00791); assay: peptic activity assay, fluorescence polarization with casein-Alexa647; type: biochemical
T1 construct: purchased Worthington Biochemical Corporation
Procedure: To examine whether HIV protease inhibitors bound and inhibited pepsin, we developed assays based on fluorescence polarization which measures size-dependent molecular rotation thereby permitting detection of degradation, association and dissociation events^80. A competitive binding assay was designed employing pepstatin, an inhibitor of sub-nanomolar affinity^81. Pepstatin-Alexa647 was synthesized by dissolving 1 mg pepstatin A (Sigma-Aldrich) in a 50:50 mixture of dimethylformamide (DMF) and dimethylsulfoxide (DMS) followed by the addition of N,N,N′,N′-Tetramethyl-O—(N-succinimidyl)uronium tetrafluoroborate (0.6 mg) and trimethylamine (10 μL) DMF. The mixture was stirred for 1 hour, after which 1 mg Alexa Fluor 647 Cadaverine, Disodium Salt (ThermoFisher Scientific) was added. After 2 hours, the solvents were evaporated under high vacuum (35° C.) and residue partially dissolved in 10% methanol and transferred onto a C18 cartridge (Waters Corporation, Milford, MA). Increasing percentages of methanol were used for the elution. […] An enzymatic inhibition assay was designed using casein substrate.^82 Bovine alpha casein (Sigma-Aldrich, St. Louis, MO) was labeled with Alexa Fluor 647 Carboxylic Acid, Succinimidyl Ester (ThermoFisher Scientific, Waltham, MA) as described.^82 Briefly, the two were combined at 2.5 ug/mg label to protein ratio in 0.1M sodium bicarbonate for 15 minutes and labeled casein was separated from unbound label in a Sephadex G-25 (Sigma-Aldrich) column comprised of 90×5 mm packed beads in a glass Pasteur pipette, eluted with dPBS pH7.4 (ThermoFisher Scientific). The fast-moving band (casein-bound fluorophore) was collected in ˜0.4 ml volume. Concentration of resultant probe (casein-Alexa647 in PBS-azide) was estimated via spectrophotometry using Beer's law (Implen Nanophotometer, Implen, Inc. Westlake Village, CA).
(§1) Assays were optimized using ranges of 0.3-1000 μM unlabeled pepstatin, 100-500 nM pepstatin-Alexa647 or casein-Alexa647 probe, 0.003-3 U/μl porcine pepsin (Worthington Biochemical Corporation, Lakewood, NJ), and 5-37.5% DMSO (HIV protease inhibitor diluent) in 0.1 M HCl, pH 1 with 0.01% v/v Tween-20 in 20 μl volumes in 384-well black optical plates (Nunc, Roskilde, DK) and read on a BioTek Cytation 5 (BioTek Instruments, Winooski, VT) with far red FP filter cube (excitation/emission 620/680 nm). Unlabeled pepstatin dose-response curves were used to ensure that the assays were responsive to pepsin inhibition. […] Assays were performed twice with triplicate reactions read for five minutes and mean mP plotted against probe concentration (binding assay) or read at <2 minutes intervals over 30 minutes with mean mP of plotted over time (activity assay). Half maximal inhibitory concentration (IC50) of inhibitors were calculated from kinetic traces analyzed using an online tool (https://icekat.herokuapp.com/icekat)^83. mP was normalized to blank (absent inhibitor) to derive percent bound or activity.

[6] = solubility when preparing co-crystallization solutions; type: physicochemical; details: saturated solution in DMSO for co-crystallization; CryoSol SM2 chosen instead
Procedure: Supernatant of saturated saquinivar solution in SM2 was combined with pepsin at 5% f.c. (v/v). Crystallization conditions were optimized by screening 200 mg/ml pepsin in the Salt RX screen (Hampton Research, Viejo, CA). […] Diffraction quality crystals (triangular bi-pyramids, approximately 200×100×100 μm) formed after 2-7 days from hanging drops of 2 ul pepsin (180-210 mg/ml) and 1 ul microseed solution serially diluted 10-100× above 3-4M ammonium chloride and 0.1M sodium acetate trihydrate pH4.6. Crystals were cryoprotected by 30% glucose, 5M ammonium chloride and 0.1 M sodium acetate trihydrate pH4.6 and plunged in liquid nitrogen. Co-crystallization with saquinavir was performed in 0.1M acetic acid rather than sodium acetate trihydrate as this permitted large crystal formation without a microseed; crystals were cryoprotected by 30% w/v glucose, 5M ammonium chloride and 0.1 M sodium acetate trihydrate pH 4.6 and plunged in liquid nitrogen.

[7] = target: T2, porcine pepsin A (Sus scrofa, UniProt P00791); assay: competitive binding assay, fluorescence polarization with pepstatin-Alexa647; details: 100 nM probe, 0.03 U/ul porcine pepsin A, 37.5% DMSO, 0.1 M HCl pH 1
T2 construct: purchased Worthington Biochemical Corporation
Procedure: To examine whether HIV protease inhibitors bound and inhibited pepsin, we developed assays based on fluorescence polarization which measures size-dependent molecular rotation thereby permitting detection of degradation, association and dissociation events^80. A competitive binding assay was designed employing pepstatin, an inhibitor of sub-nanomolar affinity^81. Pepstatin-Alexa647 was synthesized by dissolving 1 mg pepstatin A (Sigma-Aldrich) in a 50:50 mixture of dimethylformamide (DMF) and dimethylsulfoxide (DMS) followed by the addition of N,N,N′,N′-Tetramethyl-O—(N-succinimidyl)uronium tetrafluoroborate (0.6 mg) and trimethylamine (10 μL) DMF. The mixture was stirred for 1 hour, after which 1 mg Alexa Fluor 647 Cadaverine, Disodium Salt (ThermoFisher Scientific) was added. After 2 hours, the solvents were evaporated under high vacuum (35° C.) and residue partially dissolved in 10% methanol and transferred onto a C18 cartridge (Waters Corporation, Milford, MA). Increasing percentages of methanol were used for the elution. Pepstatin-Alexa647 eluted at 45% methanol. An enzymatic inhibition assay was designed using casein substrate.^82 Bovine alpha casein (Sigma-Aldrich, St. Louis, MO) was labeled with Alexa Fluor 647 Carboxylic Acid, Succinimidyl Ester (ThermoFisher Scientific, Waltham, MA) as described.^82 Briefly, the two were combined at 2.5 ug/mg label to protein ratio in 0.1M sodium bicarbonate for 15 minutes and labeled casein was separated from unbound label in a Sephadex G-25 (Sigma-Aldrich) column comprised of 90×5 mm packed beads in a glass Pasteur pipette, eluted with dPBS pH7.4 (ThermoFisher Scientific). The fast-moving band (casein-bound fluorophore) was collected in ˜0.4 ml volume. […]
as §1, with “nm).” for “nm). Unlabeled pepstatin dose-response curves were used to ensure that the assays were responsive to pepsin inhibition.”

T1 sequence (P00791 60-385): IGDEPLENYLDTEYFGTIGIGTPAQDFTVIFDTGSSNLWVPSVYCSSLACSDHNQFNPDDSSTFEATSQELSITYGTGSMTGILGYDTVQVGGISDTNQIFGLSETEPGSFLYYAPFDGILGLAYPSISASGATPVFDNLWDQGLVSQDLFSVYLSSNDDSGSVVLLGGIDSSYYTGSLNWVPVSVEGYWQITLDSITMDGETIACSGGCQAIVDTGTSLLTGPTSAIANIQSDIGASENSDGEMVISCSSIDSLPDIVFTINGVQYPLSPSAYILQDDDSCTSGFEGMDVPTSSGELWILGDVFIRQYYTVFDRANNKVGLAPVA
T2 sequence (P00791 60-385): as above

| Structure (SMILES) | tolerability [1] | bioavailability [2] | pharmacokinetics [3] | laryngeal histology, drug with saline (solvent), no pepsin ([4]; aerosol) | protection against pepsin-mediated laryngeal damage (histology) ([4]; aerosol, inhaled mass 0.93 mg/kg/day fosamprenavir, 12 mg/kg/day darunavir) | laryngeal histology, drug with saline (solvent), no pepsin ([4]; gavage) | protection against pepsin-mediated laryngeal damage (histology) ([4]; gavage, 20 mg/kg/day fosamprenavir (Lexiva), 8.6 mg/kg/day darunavir (Prezista)) | protection against pepsin-mediated laryngeal damage (histology) ([4]; gavage, 20 mg/kg/day fosamprenavir (Lexiva), 8.6 mg/kg/day darunavir (Prezista), listed as Fosamprenavir) | protection against pepsin-mediated laryngeal damage (histology) ([4]; gavage, 20 mg/kg/day fosamprenavir (Lexiva), 8.6 mg/kg/day darunavir (Prezista), listed as Lexiva) | laryngeal histology, drug with saline (solvent), no pepsin ([4]; gavage, listed as Lexiva) | inhibited pepsin (peptic activity) ([5]; 200 nM probe, 0.01 U/μL pepsin, 5% DMSO, 0.1 M HCl pH 1) | IC50 for pepsin ([5]; in vitro binding and inhibition assays, IC50 from kinetic traces) | side effects [1] | solubility [6] | bound pepsin (competitive binding) [7] |
| --- | --- | --- | --- | --- | --- | --- | --- | --- | --- | --- | --- | --- | --- | --- | --- |
| CC(C)CN(C[C@@H](OP(=O)(O)O)[C@H](Cc1ccccc1)NC(=O)O[C@H]1CCOC1)S(=O)(=O)c1ccc(N)cc1 [fosamprenavir, [(3S)-oxolan-3-yl] N-[(2S,3R)-4-[(4-aminophenyl)sulfonyl-(2-methylpropyl)amino]-1-phenyl-3-phosphonooxybutan-2-yl]carbamate] | favorable tolerability | improved bioavailability | excellent pharmacokinetics | normal histology | prevented pepsin-mediated laryngeal injury; also recorded: protected against pepsin-mediated laryngeal damage | normal histology | prevented pepsin-mediated laryngeal damage | prevented pepsin-mediated laryngeal damage; also recorded: protected against pepsin-mediated laryngeal damage | prevents pepsin-mediated airway epithelial damage | Normal-appearing respiratory epithelium |  |  |  |  |  |
| CC(C)(C)NC(=O)[C@@H]1C[C@@H]2CCCC[C@@H]2CN1C[C@@H](O)[C@H](Cc1ccccc1)NC(=O)[C@H](CC(N)=O)NC(=O)c1ccc2ccccc2n1 [saquinavir, (2S)-N-[(2S,3R)-4-[(3S,4aS,8aS)-3-(tert-butylcarbamoyl)-3,4,4a,5,6,7,8,8a-octahydro-1H-isoquinolin-2-yl]-3-hydroxy-1-phenylbutan-2-yl]-2-(quinoline-2-carbonylamino)butanediamide] |  |  |  |  |  |  |  |  |  |  | low micromolar | low micromolar range | QT prolongation, heart block, high blood lipids and liver problems | poor solubility | low micromolar |
